Turning to `CCCCC(C)O` (centres undefined) [2-hexanol], the flash point was found to be 46 °C. Turning to `CCCC(C)I` (centres undefined) [2-iodopentane], the flash point is 45 °C. In turn, `CC(C)COCCO` [2-isobutoxyethanol] gave a flash point of 51 °C. The figure for `CC(C)OCCO` [2-isopropoxyethanol] is 43 °C; for `OCCS` [2-mercaptoethanol] it is 68 °C; for `CCC(C)OC` (centres undefined) [2-methoxybutane] it is -29 °C. As to `CCC(C)CS` (centres undefined) [2-methyl-1-butanethiol], the flash point is 19 °C.

Compound `CCC(C)CO` (centres undefined) [2-methyl-1-butanol] showed a flash point of 43 °C. For `C=C(C)CC` [2-methyl-1-butene] the value was -47 °C; for `C=C(C)CCC` [2-methyl-1-pentene], -27 °C. For `CC(C)CO` [2-methyl-1-propanol] the value was 28 °C; for `CCC(C)(C)O` [2-methyl-2-butanol], 21 °C. For `CC=C(C)C` [2-methyl-2-butene] the value was -45 °C; for `CCCCC=C(C)C` [2-methyl-2-heptene], 9 °C. The compound `CCCC(C)(C)S` [2-methyl-2-pentanethiol] returned a flash point of 20 °C.

In the case of `CCC(O)C(C)C` (centres undefined) [2-methyl-3-pentanol], the flash point was determined as 46 °C. With `CCCCCCCCC(C)C` [2-methyldecane], the flash point is 50 °C. The figure for `CCCCCCCCCCC(C)C` [2-methyldodecane] is 71 °C; for `CCCCC(C)C(=O)O` (centres undefined) [2-methylhexanoicacid] it is 105 °C. The figure for `CCCCCCC(C)C` [2-methyloctane] is 24 °C.

Compound `CCCCCCCCCC(C)C` [2-methylundecane] came in with a flash point of 61 °C. For `CC(C)[N+](=O)[O-]` [2-nitropropane] the value was 28 °C; for `CCCCCCCC(C)=O` [2-nonanone], 68 °C. As to `CCCCCCC(C)O` (centres undefined) [2-octanol], the flash point stood at 72 °C. The compound `CCCCCC1CCCC1=O` (centres undefined) [2-pentylcyclopentanone] yielded a flash point of 78 °C.

The compound `CCC(C)(C)c1ccccc1` [2-phenyl-2-methylbutane] returned a flash point of 59 °C. The figure for `CCCc1ccco1` [2-propylfuran] is 15 °C; for `CCCc1ccccc1O` [2-propylphenol] it is 93 °C; for `CCC(C)c1ccccc1O` (centres undefined) [2-sec-butylphenol] it is 107 °C. For `CCCCCCCCCC(C)=O` [2-undecanone] the value was 89 °C; for `CCC(C)(C)C(C)(C)CC` [3,3,4,4-tetramethylhexane], 31 °C. The figure for `CC1(C)CC(=O)CC(C)(C)C1` [3,3,5,5-tetramethylcyclohexanone] is 73 °C. With `CCC(C)CC(C)(C)CC` (centres undefined) [3,3,5-trimethylheptane], the flash point came to 31 °C. The figure for `CCC(CC)(CC)CC` [3,3-diethylpentane] is 21 °C; for `C#CC(C)(C)C` [3,3-dimethyl-1-butyne] it is -34 °C.

Take `CC(C)(C)CC(=O)O` [3,3-dimethylbutanoicacid]: the flash point came out at 88 °C. `CCCC(C)(C)CC` [3,3-dimethylhexane]: the flash point was -1 °C. The figure for `CCCCCC(C)(C)CC` [3,3-dimethyloctane] is 41 °C; for `CCC(C)(C)CC` [3,3-dimethylpentane] it is -19 °C; for `CCC(C)C(C)C(C)CC` (centres undefined) [3,4,5-trimethylheptane] it is 31 °C.

In turn, `CCC(C)C(C)CC` (centres undefined) [3,4-dimethylhexane] showed a flash point of 6 °C.

For the compound `CCC(C)CC(C)CC` (centres undefined) [3,5-dimethylheptane], the flash point worked out at 15 °C.

`CCCC(C)CC(C)CC` (centres undefined) [3,5-dimethyloctane]: the flash point amounted to 41 °C. For `C=CCC#N` [3-butenenitrile] the value was 21 °C; for `SCCCCl` [3-chloro-1-propanethiol], 43 °C; for `Cc1cccc(Cl)c1` [3-chlorotoluene], 50 °C.

`CCCCCCCC(O)CC` (centres undefined) [3-decanol] gave a flash point of 99 °C.

As for `CCC#CCCCCCC` [3-decyne], the flash point stood at 52 °C.

`C=CC(CC)CCC` (centres undefined) [3-ethyl-1-hexene] came in with a flash point of 1 °C. For `C=CC(CC)CC` [3-ethyl-1-pentene] the value was -17 °C. The figure for `CCCC(CC)C(C)(C)C` (centres undefined) [3-ethyl-2,2-dimethylhexane] is 38 °C; for `CCC(C)(C(C)C)C(C)C` [3-ethyl-2,3,4-trimethylpentane] it is 31 °C; for `CCC(C)(CC)C(C)C` [3-ethyl-2,3-dimethylpentane] it is 15 °C. For the compound `CCC(C)(CC)CC` [3-ethyl-3-methylpentane], the flash point was determined as 3 °C.

Compound `CCC(S)(CC)CC` [3-ethyl-3-pentanethiol] displayed a flash point of 34 °C. For `CCC(C)C(CC)CC` (centres undefined) [3-ethyl-4-methylhexane] the value was 15 °C; for `CCc1cccc(N)c1` [3-ethylaniline], 85 °C; for `CCC1CCC(=O)C1` (centres undefined) [3-ethylcyclopentanone], 46 °C. Consider `CCC(CC)CC` [3-ethylpentane], for which the flash point was -12 °C.

With `CCCCC(O)CC` (centres undefined) [3-heptanol], the flash point came out at 55 °C.

In the case of `CCC#CCCC` [3-heptyne], the flash point came to 5 °C. The figure for `CCCC(S)CC` (centres undefined) [3-hexanethiol] is 30 °C; for `CCCC(O)CC` (centres undefined) [3-hexanol] it is 45 °C. For `CCCC(=O)CC` [3-hexanone] the value was 23 °C; for `CC(C)CCO` [3-methyl-1-butanol], 43 °C; for `CCC(C)CCO` (centres undefined) [3-methyl-1-pentanol], 58 °C. Compound `CC(=O)C(C)C` [3-methyl-2-butanone] returned a flash point of -1 °C. The figure for `CCC(C)C(C)O` (centres undefined) [3-methyl-2-pentanol] is 41 °C; for `CCC(C)C(C)=O` (centres undefined) [3-methyl-2-pentanone] it is 12 °C; for `COc1cccc(C)c1` [3-methylanisole] it is 52 °C. Turning to `CC(C)CC#N` [3-methylbutanenitrile], the flash point is 28 °C. As for `CC1C=CCCC1` (centres undefined) [3-methylcyclohexene], the flash point is -3 °C. For `CC1CCC(=O)C1` (centres undefined) [3-methylcyclopentanone] the value was 34 °C; for `Cc1ccoc1` [3-methylfuran], -22 °C; for `CCCCCCC(C)CC` (centres undefined) [3-methylnonane], 41 °C. `CCCCCC(C)CC` (centres undefined) [3-methyloctane] came in with a flash point of 24 °C.

As to `CCC(C)CC` [3-methylpentane], the flash point is -32 °C. Compound `CCCCCCC(=O)CC` [3-nonanone] gave a flash point of 63 °C. On to `CCCCCC(=O)CC` [3-octanone], for which the flash point was 51 °C. On to `CCC(N)CC` [3-pentanamine], for which the flash point amounted to 2 °C. The figure for `CCC(O)CC` [3-pentanol] is 33 °C. For `CCC(=O)CC` [3-pentanone] the value was 7 °C. As to `Cc1cccnc1` [3-picoline], the flash point is 36 °C. Take `CC(C)(C)c1cccc(N)c1` [3-tert-butylaniline]: the flash point is 101 °C. For `CC(C)(C)C1CCC(=O)C1` (centres undefined) [3-tert-butylcyclopentanone] the value was 64 °C; for `CC#CC(C)(C)C` [4,4-dimethyl-2-pentyne], -10 °C; for `CCCC(C)(C)CCC` [4,4-dimethylheptane], 15 °C.

In the case of `CCCCc1ccc(N)cc1` [4-butylaniline], the flash point was 102 °C. For `Cc1ccc(Cl)cc1` [4-chlorotoluene] the value was 46 °C.

Compound `CCc1ccc(C)c(C)c1` [4-ethyl-1,2-dimethylbenzene] showed a flash point of 58 °C. In turn, `CCCC(CC)C(C)CC` (centres undefined) [4-ethyl-3-methylheptane] registered a flash point of 41 °C. The figure for `CCC1CCC(=O)CC1` [4-ethylcyclohexanone] is 63 °C; for `CCCCC(CC)CCC` (centres undefined) [4-ethyloctane] it is 41 °C. For `C=Cc1ccc(F)cc1` [4-fluorostyrene] the value was 35 °C; for `Cc1ccc(F)cc1` [4-fluorotoluene], 12 °C.

`Cc1ccc(I)cc1` [4-iodotoluene] had a flash point of 90 °C.

As to `CC(C)C1CCC(=O)CC1` [4-isopropylcyclohexanone], the flash point came out at 65 °C. For the compound `C=CCC(C)C` [4-methyl-1-pentene], the flash point was -32 °C. The figure for `CC(C)CC(C)O` (centres undefined) [4-methyl-2-pentanol] is 41 °C; for `COc1ccc(C)cc1` [4-methylanisole] it is 53 °C; for `CC1CC=CCC1` (centres undefined) [4-methylcyclohexene] it is -1 °C. The figure for `CCCC(C)CCC` [4-methylheptane] is 5 °C; for `CCCCC(=O)CCC` [4-octanone] it is 45 °C. For `CCCC#CCCC` [4-octyne] the value was 18 °C.

With `C=CCCCO` [4-penten-1-ol], the flash point amounted to 43 °C. For `CC=Cc1ccc(OC)cc1` [4-propenylanisole] the value was 96 °C.

Compound `CCCc1ccc(N)cc1` [4-propylaniline] showed a flash point of 103 °C. For `CCCc1ccc(OC)cc1` [4-propylanisole] the value was 82 °C; for `CCCC(CCC)CCC` [4-propylheptane], 35 °C.
